Reference: ChEMBL document CHEMBL1128923, “A simple synthesis of biaryl phospholipase A2 inhibitors: Probing hydrophobic effects” (Bioorg Med Chem Lett, 1996)

Experiments:
[1] = target: T1, Phospholipase A2, membrane associated (Homo sapiens) (UniProt P14555); experiment: Compound was evaluated for inhibition of phospholipase A2 (PLA2) isolated from human platelets at a concentration of 100 uM
T1 sequence (whole entry): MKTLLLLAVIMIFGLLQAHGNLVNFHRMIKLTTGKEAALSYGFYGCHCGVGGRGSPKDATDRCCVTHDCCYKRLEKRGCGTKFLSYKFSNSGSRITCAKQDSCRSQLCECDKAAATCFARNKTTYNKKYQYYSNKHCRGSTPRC

[2] = target: T1, Phospholipase A2, membrane associated (Homo sapiens); experiment: Compound was evaluated for inhibition of phospholipase A2 (PLA2) isolated from human platelets at a concentration of 10 uM
[3] = target: T2, Phospholipase A2, membrane associated (Homo sapiens, UniProt P14555); experiment: Compound was evaluated for inhibition of human platelet phospholipase A2 (HP-PLA2).
T2 sequence (P14555 whole entry): T1 sequence (whole entry)

Mus musculus = experiment: Effective dose to reduce mouse ear edema in a phorbol ester induced inflammation assay; assay type: functional

Structure (SMILES)	inhibition [1]	inhibition [2]	IC50 [3]	ED50 (Mus musculus)
O=C(O)c1ccccc1-c1ccccc1C(=O)Nc1ccc2ccccc2c1	8%	2%	–	–
CC(C)c1ccc2c(c1)CC[C@H]1C[C@](C)(CNC(=O)c3ccccc3-c3ccccc3C(=O)O)CC[C@]21C	63%	6%	–	–
CCCCCCCCCCOc1ccc(NC(=O)c2ccccc2-c2ccccc2C(=O)O)cc1OCCCCCCCCCC	98%	85%	–	–
CC1(C)CCC(C)(C)c2cc(NC(=O)c3ccccc3-c3ccccc3C(=O)O)ccc21	35%	14%	–	–
CC1=C(/C=C/C(C)=C/C=C(/C(C)=C/C(=O)O)c2cccc(C(=O)O)c2)C(C)(C)CCC1	–	–	40 µM	160 ug ear-1
O=C(O)c1ccccc1-c1ccccc1C(=O)NC1CCCCCCC1	15%	2%	–	–
O=C(O)c1ccccc1-c1ccccc1C(=O)NCCc1c[nH]c2ccc(O)cc12	0%	0%	–	–
CCCCCCCCCCOc1ccc(NC(=O)c2ccccc2-c2ccccc2C(=O)O)cc1OCC(=O)O	23%	2%	–	–
CCCCCCCCCCc1ccc(NC(=O)c2ccccc2-c2ccccc2C(=O)O)cc1	92%	26%	–	–
